Data taken from PMC7200204 (Ecotoxicology and environmental safety, 2020).
≈ marks a conversion by molar mass, not a printed value.

Test system: anti-1-NAP monoclonal antibody (mAb)
Assay: ciELISA with the obtained mAb under optimized conditions
Format: binding, mouse
Conditions: for CR (cross-reactivity): CR (%) = [IC50 (NAP)/IC50 (cross-reactant)] × 100, n=3; for IC50: Table 2, optimized condition, n=3

SMILES	CR (cross-reactivity) [%]	IC50 [µg/mL]
Oc1cc(O)c2ccccc2c1 [1,3-dihydroxy naphthalene]	6.9	0.178 (≈ 1.11 µM)
Oc1ccc(O)c2ccccc12 [1,4-dihydroxy naphthalene]	6.2	0.2007 (≈ 1.25 µM)
Oc1cccc2c(O)cccc12 [1,5-dihydroxy naphthalene]	14.3	0.0874 (≈ 0.546 µM)
Oc1ccc2c(O)cccc2c1 [1,6-dihydroxy naphthalene]	2.5	0.5028 (≈ 3.14 µM)
Oc1ccc2cccc(O)c2c1 [1,7-dihydroxy naphthalen]	1.4	0.8817 (≈ 5.5 µM)
Oc1cccc2cccc(O)c12 [1,8-dihydroxy naphthalene]	0.3	4.3034 (≈ 26.9 µM)
Oc1ccc2cc(O)ccc2c1 [2,6-dihydroxy naphthalene]	0.4	2.8397 (≈ 17.7 µM)
CNC(=O)Oc1cccc2ccccc12 [Carbaryl]	4.2	0.3007 (≈ 1.49 µM)
Oc1cccc2ccccc12 [Hapten 1-naphthol, 1-naphthol]	100	0.0125 (≈ 0.0867 µM)
Oc1ccc2ccccc2c1 [Hapten 2-naphthol, 2-naphthol]	1.2	1.005 (≈ 6.97 µM)
